Reference: patent publication US9862697B2, “pH-sensitive fluorescent sensors for biological amines” (The Curators of the University of Missouri, priority 2013, dated 2018)
Marks after values point to notes of the source that are not given here.

Assays:
[1] = pH titration of sensor (absorbance and fluorescence monitored), pKa; type: physicochemical; details: buffered solution of the sensor; unbound sensor; pH and fluorescence intensity data fit to a pH isotherm
Method: (§1) The spectroscopic properties of several exemplary inventive sensors have been examined, along with the starting compound 1, as 7-hydroxycoumarins are well known for their pH-sensitivity. First, the acidity of the sensors was discerned by performing pH titrations where aliquots of aqueous HCl were added to a buffered solution of the sensor and the absorbance and fluorescence were monitored. The pKa of the pH-sensitive unit is related to the donating ability of the sulfonamide substituent. ES517 has a dimethylamino-substituent on the sulfonamide which is the best electron-donor into the sulfonyl motif. This makes deprotonation of the N—H proton located at the 7-position of the coumarin core the least favorable and therefore the least acidic. The pH and fluorescence intensity data were fit to a pH isotherm and the pKa was determined to be 6.3. As the donating ability of the sulfonamide substituent into the sulfonyl motif worsened, the acidity of the N—H proton located at the 7-position of the coumarin core increased. The aromatic substituents are the least electron donating substituents into the sulfonyl motif which explains the greater acidity. By using a single coupling reaction, the pKa of the sensor may be tuned to fit the parameters of the experiment.

[2] = Spectroscopic properties of unbound sensors; type: physicochemical; parameters: λmax (GH) / λmax (G-): unit not given here; details: for λem (ex: 488 nm): excitation 488 nm; for λmax (G-) / λmax (GH): unbound sensor; for λmax (G-): deprotonated form G-; for λmax (GH): protonated form GH
Method: as §1
(§2) Table 1 summarizes the spectroscopic properties of the tested compounds in pH varying environments, mimicking the vesicular and synaptic cleft conditions.

[3] = Fluorescence at pH 7.4 vs 5.0 of sensor saturated with glutamate
Method: Next, the sensor was saturated with 300 mM glutamate in order to mimic vesicular conditions. The fluorescence intensity of the bound complex was then monitored between the pH values of 5 and 7.4, the acidities associated with the synaptic vesicle and synaptic cleft, respectively. An excitation wavelength of 488 nm was used because it is far enough to the red to ensure that only the bound, deprotonated sensor was excited. It is also a common wavelength used in fluorescence microscopy cell studies. The fluorescence intensity increased for all sensors upon basification from pH 5 to 7.4, however the sensors with the highest pKa values gave the greatest enhancements.
as §2

[4] = Fluorescence at pH 7.4 vs 5.0 of ES517 saturated with GABA; details: ES517 20 μM saturated with 300 mM GABA
From the text: (§3) The ES517 was further analyzed for binding and spectroscopic properties with the common neurotransmitters other than glutamate released upon exocytosis. […] The aromatic neurotransmitters dampened the fluorescence turn-on response of the inventive sensors due to the electron-rich nature of catecholamines (norepinephrine and dopamine) and indoleamines (serotonin).

[5] = Fluorescence at pH 7.4 vs 5.0 of ES517 saturated with glycine; details: ES517 20 μM saturated with 300 mM glycine
From the text: as §3

[6] = Fluorescence at pH 7.4 vs 5.0 of ES517 saturated with norepinephrine; details: ES517 20 μM saturated with 100 mM norepinephrine
From the text: as §3

[7] = Fluorescence at pH 7.4 vs 5.0 of ES517 saturated with dopamine; details: ES517 20 μM saturated with 100 mM dopamine
From the text: as §3

[8] = Binding study (fluorescence titration) of ES517 with glutamate
Method: While low, this binding constant is believed to be preferred for reversible binding due to the high millimolar concentration of glutamate in a vesicle (˜300 mM).

[9] = Binding study (fluorescence titration) of ES517 with GABA
[10] = Binding study (fluorescence titration) of ES517 with glycine
[11] = Binding study (fluorescence titration) of ES517 with norepinephrine
[12] = Binding study (fluorescence titration) of ES517 with dopamine
[13] = Binding study (fluorescence titration) of ES517 with serotonin
[14] = pKa and absorbance of the bound sensor (ES517 saturated with glutamate) over a wide pH range; type: physicochemical
From the text: ES517 was saturated with glutamate and the spectroscopic properties measured over a wide pH range. The protonated form of the bound sensor (FIG. 4, structure B) absorbed at 368 nm. […] The 428 nm band was assigned to the unbound deprotonated form of the sensor (structure C). The 458 nm band therefore represents the bound, deprotonated sensor (structure D). The plot of pH vs. intensity was fit to a pH isotherm and the pKa determined to be 6.3.

[15] = sensor saturated with 0.3M glutamate, intensities monitored at pH 5.0 and 7.4
[16] = ES517 20 μM, buffered, pH 7.4, ±10% error
[17] = fluorescence enhancement upon binding at pH 7.4, λem = 517 nm

SMILES: CS(=O)(=O)Nc1ccc2c(-c3ccccc3)c(C=O)c(=O)oc2c1
- pKa [1]: 5.9
- λem (ex: 488 nm) [2]: 489 nm
- λmax (G-) [2]: 420
- λmax (GH) [2]: 365
- IpH 7.4/IpH 5 [3, 15]: 5.5

SMILES: O=Cc1c(-c2ccccc2)c2ccc(NS(=O)(=O)c3cccs3)cc2oc1=O
- pKa [1]: 5.2
- λem (ex: 488 nm) [2]: 494 nm
- λmax (G-) [2]: 416
- λmax (GH) [2]: 366
- IpH 7.4/IpH 5 [3, 15]: 2.5

SMILES: O=Cc1c(-c2ccccc2)c2ccc(O)cc2oc1=O
- pKa [1]: 5.8
- λem (ex: 488 nm) [2]: 468 nm
- λmax (G-) [2]: 420
- λmax (GH) [2]: 368
- IpH 7.4/IpH 5 [3, 15]: 3.3

SMILES: CN(C)S(=O)(=O)Nc1ccc2c(-c3ccccc3)c(C=O)c(=O)oc2c1 [ES517]
- pKa [1]: 6.3
- λem (ex: 488 nm) [2]: 498 nm
- λmax (G-) [2]: 419
- λmax (GH) [2]: 368
- IpH 7.4/IpH 5 ([3]; ES517 20 μM saturated with 300 mM glutamate, fluorescence at pH 7.4 vs. 5.0): 12^d
- IpH 7.4/IpH 5 [3, 15]: 12
- IpH 7.4/IpH 5 [4]: 11 ^d
- IpH 7.4/IpH 5 [5]: 10 ^d
- IpH 7.4/IpH 5 [6]: 5.3 ^e
- IpH 7.4/IpH 5 [7]: 5.5 ^e
- Ka ([8]; glutamate, ES517 20 μM, 50 mM bis-tris propane, 50 mM Na2S2O3, 1% DMSO, pH 7.4, ±10% error): 8.6 M⁻¹
- Isat/I0 ([8]; glutamate, fluorescence enhancement upon binding at pH 7.4, Isat from theoretical max of binding isotherm, λem = 517 nm): 12
- fluorescence enhancement upon binding to glutamate ([8]; titration with glutamate, excitation 488 nm): 12 fold
- Ka [9, 16]: 8.3 M⁻¹
- Isat/I0 [9, 17]: 27
- Ka [10, 16]: 9.2 M⁻¹
- Isat/I0 [10, 17]: 25
- Ka [11, 16]: 49 M⁻¹
- Isat/I0 [11, 17]: 14
- Ka [12, 16]: 55 M⁻¹
- Isat/I0 [12, 17]: 10
- Ka [13, 16]: 54 M⁻¹
- Isat/I0 [13, 17]: 0.5
- absorbance of protonated form of the bound sensor (structure B) [14]: 368 nm
- absorbance band of bound, deprotonated sensor (structure D) ([14]; upon deprotonation): 458 nm
- absorbance band of unbound deprotonated form of the sensor (structure C) ([14]; upon deprotonation): 428 nm
